Data from the OligoGym collection.
HELM strings list units from the 5' end as sugar, base in round brackets, then linkage (d deoxyribose, r ribose, m 2'-O-methyl, p phosphodiester). Strings are as the collection lists them; they lack the last nucleoside at the 3' end of the tested compound. [moe] = 2'-O-(2-methoxyethyl) (MOE); [sp] = phosphorothioate linkage; [m5C] = 5-methylcytosine

The substances below were run against ATXN2 (assay: mouse, dose not given). Details: ASO.

Q: Which 3 h FOB score does the source give for “RNA1{[moe]([m5C])[sp].[moe](T)p.[moe](G)p.[moe]([m5C])p.d(T)[sp].d(A)[sp].d(A)[sp].d([m5C])[sp].d(T)[sp].d(G)[sp].d(G)[sp].d(T)[sp].d(T)[sp].d(T)[sp].[moe](G)p.[moe]([m5C])p.[moe]([m5C])p.[moe]([m5C])[sp].[moe](T)}$$$$ (last 3' nucleoside missing)” here?
A: The 3 h FOB score was 1 score 0-7.

Q: “RNA1{[moe]([m5C])[sp].[moe](T)p.[moe](T)p.[moe](A)p.[moe](G)[sp].d(A)[sp].d(G)[sp].d(T)[sp].d(T)[sp].d(T)[sp].d(T)[sp].d(T)[sp].d(G)[sp].[moe]([m5C])p.[moe]([m5C])p.[moe](T)[sp].[moe](T)}$$$$ (last 3' nucleoside missing)” was tested. Which 3 h FOB score did it give?
A: Its 3 h FOB score is 6 score 0-7.

Q: For “RNA1{[moe]([m5C])[sp].[moe](T)p.[moe](T)p.[moe](A)p.[moe](G)p.[moe](A)p.d(G)[sp].d(T)[sp].d(T)[sp].d(T)[sp].d(T)[sp].d(T)[sp].d(G)[sp].d([m5C])[sp].d([m5C])[sp].d(T)[sp].[moe](T)p.[moe]([m5C])[sp].[moe]([m5C])}$$$$ (last 3' nucleoside missing)”, which 3 h FOB score is on record?
A: Its 3 h FOB score is 4.5 score 0-7.

Q: For “RNA1{[moe]([m5C])[sp].[moe](T)p.[moe](T)p.[moe](A)p.[moe](G)p.d(A)[sp].d(G)[sp].d(T)[sp].d(T)[sp].d(T)[sp].d(T)[sp].d(T)[sp].d(G)[sp].d([m5C])[sp].d([m5C])[sp].[moe](T)p.[moe](T)p.[moe]([m5C])[sp].[moe]([m5C])}$$$$ (last 3' nucleoside missing)”, which 3 h FOB score is on record?
A: The 3 h FOB score was 4 score 0-7.

Q: How did the 3 h FOB score turn out when “RNA1{[moe]([m5C])[sp].[moe](T)p.[moe](T)p.[moe](A)p.d(G)[sp].d(A)[sp].d(G)[sp].d(T)[sp].d(T)[sp].d(T)[sp].d(T)[sp].d(T)[sp].d(G)[sp].d([m5C])[sp].[moe]([m5C])p.[moe](T)p.[moe](T)p.[moe]([m5C])[sp].[moe]([m5C])}$$$$ (last 3' nucleoside missing)” was run?
A: The 3 h FOB score was 5.5 score 0-7.

Q: How did the 3 h FOB score turn out when “RNA1{[moe]([m5C])[sp].[moe](T)p.[moe](T)p.[moe](G)p.[moe](T)p.d(A)[sp].d([m5C])[sp].d(T)[sp].d(T)[sp].d([m5C])[sp].d(A)[sp].d([m5C])[sp].d(A)[sp].d(T)[sp].d(T)[sp].[moe](T)p.[moe](G)p.[moe](G)[sp].[moe](A)}$$$$ (last 3' nucleoside missing)” was run?
A: Its 3 h FOB score is 2.25 score 0-7.

Q: “RNA1{[moe]([m5C])[sp].[moe](T)p.[moe](T)p.[moe](G)p.[moe](T)p.d(T)[sp].d(G)[sp].d(T)[sp].d(T)[sp].d(G)[sp].d(T)[sp].d(T)[sp].d(T)[sp].d(A)[sp].d([m5C])[sp].[moe](A)p.[moe](T)p.[moe](T)[sp].[moe](A)}$$$$ (last 3' nucleoside missing)” was tested. Which 3 h FOB score did it give?
A: The 3 h FOB score was 3 score 0-7.

Q: How did the 3 h FOB score turn out when “RNA1{[moe]([m5C])[sp].[moe](T)p.[moe](T)p.[moe](T)p.[moe](T)[sp].d([m5C])[sp].d(T)[sp].d([m5C])[sp].d(A)[sp].d(T)[sp].d(G)[sp].d(T)[sp].d(G)[sp].[moe]([m5C])p.[moe](G)p.[moe](G)[sp].[moe]([m5C])}$$$$ (last 3' nucleoside missing)” was run?
A: The 3 h FOB score was 5.5 score 0-7.

Q: “RNA1{[moe]([m5C])[sp].[moe](T)p.[moe](T)p.[moe](T)p.[moe](T)p.d([m5C])[sp].d(T)[sp].d([m5C])[sp].d(A)[sp].d(T)[sp].d(G)[sp].d(T)[sp].d(G)[sp].d([m5C])[sp].d(G)[sp].[moe](G)p.[moe]([m5C])p.[moe](A)[sp].[moe](T)}$$$$ (last 3' nucleoside missing)” was tested. Which 3 h FOB score did it give?
A: Its 3 h FOB score is 6.25 score 0-7.

Q: With “RNA1{[moe]([m5C])[sp].[moe](T)p.[moe](T)p.[moe]([m5C])p.[moe](T)[sp].d([m5C])[sp].d(T)[sp].d(A)[sp].d(T)[sp].d(T)[sp].d(T)[sp].d([m5C])[sp].d(T)[sp].[moe](T)p.[moe](T)p.[moe](G)[sp].[moe](T)}$$$$ (last 3' nucleoside missing)” as the substance, how does the 3 h FOB score read?
A: The 3 h FOB score was 0 score 0-7.

Q: With “RNA1{[moe]([m5C])[sp].[moe](T)p.[moe](T)p.[moe]([m5C])p.[moe](T)p.d(G)[sp].d([m5C])[sp].d(T)[sp].d(A)[sp].d(A)[sp].d([m5C])[sp].d(T)[sp].d(G)[sp].d(G)[sp].d(T)[sp].[moe](T)p.[moe](T)p.[moe](G)[sp].[moe]([m5C])}$$$$ (last 3' nucleoside missing)” as the substance, how does the 3 h FOB score read?
A: The 3 h FOB score was 2.5 score 0-7.

Q: With “RNA1{[moe]([m5C])[sp].[moe](T)p.[moe](T)p.[moe]([m5C])p.[moe](T)p.d([m5C])[sp].d(T)[sp].d(A)[sp].d(T)[sp].d(T)[sp].d(T)[sp].d([m5C])[sp].d(T)[sp].d(T)[sp].d(T)[sp].[moe](G)p.[moe](T)p.[moe]([m5C])[sp].[moe]([m5C])}$$$$ (last 3' nucleoside missing)” as the substance, how does the 3 h FOB score read?
A: Its 3 h FOB score is 1 score 0-7.

Q: Which 3 h FOB score does the source give for “RNA1{[moe]([m5C])[sp].[moe](T)p.[moe]([m5C])p.[moe](T)p.[moe](A)[sp].d(T)[sp].d(T)[sp].d(T)[sp].d([m5C])[sp].d(T)[sp].d(T)[sp].d(T)[sp].d(G)[sp].[moe](T)p.[moe]([m5C])p.[moe]([m5C])[sp].[moe](A)}$$$$ (last 3' nucleoside missing)” here?
A: The 3 h FOB score was 3.5 score 0-7.

Q: How did the 3 h FOB score turn out when “RNA1{[moe]([m5C])[sp].[moe](T)p.[moe]([m5C])p.[moe](T)p.[moe](A)p.d(T)[sp].d(T)[sp].d(T)[sp].d([m5C])[sp].d(T)[sp].d(T)[sp].d(T)[sp].d(G)[sp].d(T)[sp].d([m5C])[sp].[moe]([m5C])p.[moe](A)p.[moe](G)[sp].[moe](G)}$$$$ (last 3' nucleoside missing)” was run?
A: Its 3 h FOB score is 3.5 score 0-7.

Q: For “RNA1{[moe]([m5C])[sp].[moe](T)p.[moe]([m5C])p.[moe](T)p.[moe]([m5C])[sp].d([m5C])[sp].d(A)[sp].d(T)[sp].d(T)[sp].d(A)[sp].d(T)[sp].d(T)[sp].d(T)[sp].[moe]([m5C])p.[moe](T)p.[moe](T)[sp].[moe]([m5C])}$$$$ (last 3' nucleoside missing)”, which 3 h FOB score is on record?
A: Its 3 h FOB score is 0 score 0-7.

Q: With “RNA1{[moe]([m5C])[sp].[moe](T)p.[moe]([m5C])p.[moe](T)p.[moe]([m5C])[sp].d([m5C])[sp].d(A)[sp].d(T)[sp].d(T)[sp].d(A)[sp].d(T)[sp].d(T)[sp].d(T)[sp].d([m5C])[sp].d(T)[sp].[moe](T)p.[moe]([m5C])p.[moe](A)[sp].[moe]([m5C])}$$$$ (last 3' nucleoside missing)” as the substance, how does the 3 h FOB score read?
A: Its 3 h FOB score is 5.75 score 0-7.

Q: “RNA1{[moe]([m5C])[sp].[moe](T)p.[moe]([m5C])p.[moe](T)p.[moe]([m5C])p.[moe]([m5C])p.d(A)[sp].d(T)[sp].d(T)[sp].d(A)[sp].d(T)[sp].d(T)[sp].d(T)[sp].d([m5C])[sp].d(T)[sp].d(T)[sp].[moe]([m5C])p.[moe](A)[sp].[moe]([m5C])}$$$$ (last 3' nucleoside missing)” was tested. Which 3 h FOB score did it give?
A: The 3 h FOB score was 2 score 0-7.

Q: With “RNA1{[moe]([m5C])[sp].[moe](T)p.[moe]([m5C])p.[moe](T)p.[moe]([m5C])p.d([m5C])[sp].d(A)[sp].d(T)[sp].d(T)[sp].d(A)[sp].d(T)[sp].d(T)[sp].d(T)[sp].d([m5C])[sp].d(T)[sp].[moe](T)p.[moe]([m5C])p.[moe](A)[sp].[moe]([m5C])}$$$$ (last 3' nucleoside missing)” as the substance, how does the 3 h FOB score read?
A: The 3 h FOB score was 4 score 0-7.

Q: For “RNA1{[moe]([m5C])[sp].[moe](T)p.[moe]([m5C])p.[moe](T)p.d([m5C])[sp].d([m5C])[sp].d(A)[sp].d(T)[sp].d(T)[sp].d(A)[sp].d(T)[sp].d(T)[sp].d(T)[sp].d([m5C])[sp].[moe](T)p.[moe](T)p.[moe]([m5C])p.[moe](A)[sp].[moe]([m5C])}$$$$ (last 3' nucleoside missing)”, which 3 h FOB score is on record?
A: The 3 h FOB score was 3 score 0-7.

Q: How did the 3 h FOB score turn out when “RNA1{[moe]([m5C])[sp].[moe](T)p.[moe]([m5C])p.[moe]([m5C])p.[moe](A)[sp].d(T)[sp].d(T)[sp].d(A)[sp].d(T)[sp].d(T)[sp].d(T)[sp].d([m5C])[sp].d(T)[sp].[moe](T)p.[moe]([m5C])p.[moe](A)[sp].[moe]([m5C])}$$$$ (last 3' nucleoside missing)” was run?
A: Its 3 h FOB score is 3.5 score 0-7.

Q: For “RNA1{[moe]([m5C])[sp].[moe](T)p.[moe]([m5C])p.[moe]([m5C])p.[moe](A)p.d(T)[sp].d(T)[sp].d(A)[sp].d(T)[sp].d(T)[sp].d(T)[sp].d([m5C])[sp].d(T)[sp].d(T)[sp].d([m5C])[sp].[moe](A)p.[moe]([m5C])p.[moe](G)[sp].[moe](T)}$$$$ (last 3' nucleoside missing)”, which 3 h FOB score is on record?
A: The 3 h FOB score was 1 score 0-7.

Q: Which 3 h FOB score does the source give for “RNA1{[moe]([m5C])[sp].[moe](T)p.[moe]([m5C])p.[moe]([m5C])p.[moe](T)[sp].d(A)[sp].d(T)[sp].d([m5C])[sp].d(A)[sp].d(T)[sp].d([m5C])[sp].d(A)[sp].d(T)[sp].[moe](T)p.[moe](T)p.[moe](T)[sp].[moe]([m5C])}$$$$ (last 3' nucleoside missing)” here?
A: The 3 h FOB score was 0 score 0-7.

Q: For “RNA1{[moe]([m5C])[sp].[moe](T)p.[moe]([m5C])p.[moe]([m5C])p.[moe](T)p.d(A)[sp].d(T)[sp].d([m5C])[sp].d(A)[sp].d(T)[sp].d([m5C])[sp].d(A)[sp].d(T)[sp].d(T)[sp].d(T)[sp].[moe](T)p.[moe]([m5C])p.[moe]([m5C])[sp].[moe](A)}$$$$ (last 3' nucleoside missing)”, which 3 h FOB score is on record?
A: Its 3 h FOB score is 1 score 0-7.

Q: For “RNA1{[moe]([m5C])[sp].[moe]([m5C])[sp].[moe]([m5C])[sp].[moe](A)[sp].[moe](A)[sp].d(A)[sp].d(G)[sp].d(G)[sp].d(G)[sp].d(T)[sp].d(T)[sp].d(A)[sp].d(A)[sp].d(T)[sp].d(T)[sp].[moe](A)[sp].[moe](G)[sp].[moe](G)[sp].[moe](A)}$$$$ (last 3' nucleoside missing)”, which 3 h FOB score is on record?
A: The 3 h FOB score was 7 score 0-7.

Q: Which 3 h FOB score does the source give for “RNA1{[moe]([m5C])[sp].[moe]([m5C])[sp].[moe]([m5C])[sp].[moe](A)[sp].[moe](T)[sp].d(A)[sp].d([m5C])[sp].d(G)[sp].d([m5C])[sp].d(G)[sp].d(G)[sp].d(T)[sp].d(G)[sp].d(A)[sp].d(A)[sp].[moe](T)[sp].[moe](T)[sp].[moe]([m5C])[sp].[moe](T)}$$$$ (last 3' nucleoside missing)” here?
A: Its 3 h FOB score is 7 score 0-7.

Q: Which 3 h FOB score does the source give for “RNA1{[moe]([m5C])[sp].[moe]([m5C])p.[moe](A)p.[moe](G)p.[moe](A)p.d(A)[sp].d(A)[sp].d(T)[sp].d([m5C])[sp].d(T)[sp].d(G)[sp].d(T)[sp].d(A)[sp].d(A)[sp].d(A)[sp].[moe](T)p.[moe](T)p.[moe]([m5C])[sp].[moe](T)}$$$$ (last 3' nucleoside missing)” here?
A: Its 3 h FOB score is 3 score 0-7.
